Laboratory results: ChEMBL document CHEMBL5096145, “Evaluation of imidazo[2,1-b]thiazole-based anticancer agents in one decade (2011-2020): Current status and future prospects” (Bioorg Med Chem, 2021)
pIC50: −log10 of the molar value. Blank lines part the entries; values can stand above or below the compound they belong to.

Columns and labels:
A549 [1] = assay: Inhibition of tubulin polymerisation in human A549 cells relative to control; assay type: cell-based; conditions: dose or concentration not given here
A549 [2] = assay: Antiproliferative activity against human A549 cells incubated for 48 hrs by MTT assay; assay type: functional, cell-based; conditions: A549, 48 h
A549 [3] = assay: Induction of apoptosis in human A549 cells at 2 uM measured after 48 hrs by Annexin V-FITC analysis; assay type: functional
A549 [4] = assay: Induction of cell cycle arrest in human A549 cells assessed as accumulation of cells at G2/M phase at 2 uM by flow cytometric analysis relative to control; assay type: functional
A549 [5] = assay: Induction of cell cycle arrest in human A549 cells assessed as accumulation of cells at G2/M phase at 1 uM by flow cytometric analysis relative to control; assay type: functional
[6] = Inhibition of tubulin polymerisation in human A549; assay type: cell-based
A549 [7] = assay: Induction of apoptosis in human A549 cells at 1 uM measured after 48 hrs by Annexin V-FITC analysis; assay type: functional
MDA-MB-231 [8] = assay: Induction of cell cycle arrest in human MDA-MB-231 cells assessed as accumulation of cells at G0/G1 phase measured at 1 uM incubated for 24 hrs by flow cytometric analysis relative to control; assay type: functional
A-375 [9] = assay: Antiproliferative activity against human A375 cells measured after 48 hrs by MTT assay; assay type: functional, cell-based; conditions: A-375, 48 h
SK-MEL-28 = assay: Antiproliferative activity against human SK-MEL-28 cells measured after 48 hrs by MTT assay; assay type: functional, cell-based; conditions: SK-MEL-28, 48 h
OVCAR-3 = assay: Anticancer activity against human OVCAR-3 cells incubated for 48 hrs by SRB staining assay; assay type: functional
UACC-62 = assay: Antiproliferative activity against human UACC-62 cells measured after 48 hrs by MTT assay; assay type: functional, cell-based; conditions: UACC-62, 48 h
MDA-MB-435 = assay: Antiproliferative activity against human MDA-MB-435 cells measured after 48 hrs by MTT assay; assay type: functional, cell-based; conditions: MDA-MB-435, 48 h
A-375 [10] = assay: Cytotoxicity against human A-375 cells by MTT assay; assay type: functional, cell-based
HT-29 = assay: Cytotoxicity against human HT-29 cells assessed as reduction in cell viability relative to control; assay type: functional
DU-145 [11] = assay: Cytotoxicity against human DU-145 cells assessed as reduction in cell viability; assay type: functional, cell-based
DU-145 [12] = assay: Potency index, ratio of sorafenib IC50 to test compound IC50 for cytotoxicity against human DU-145 cells; assay type: functional
HeLa = assay: Cytotoxicity against human HeLa cells expressing EGFR assessed as reduction in cell viability incubated for 24 hrs by MTT assay; assay type: functional, cell-based
L02 = assay: Cytotoxicity against human HL7702 cells expressing EGFR assessed as reduction in cell viability incubated for 24 hrs by MTT assay; assay type: functional, cell-based; conditions: L02, 24 h
HepG2 = assay: Cytotoxicity against human HepG2 cells expressing EGFR assessed as reduction in cell viability incubated for 24 hrs by MTT assay; assay type: functional, cell-based; conditions: HepG2, 24 h
HUVEC = assay: Cytotoxicity against HUVEC expressing EGFR assessed as reduction in cell viability incubated for 24 hrs by MTT assay; assay type: functional, cell-based; conditions: Homo sapiens
HCT-116 = assay: Anticancer activity against human HCT-116 cells measured after 48 hrs by MTT assay; assay type: functional, cell-based; conditions: HCT-116, 48 h
MDA-MB-231 [13] = assay: Antiproliferative activity against human MDA-MB-231 cells measured after 48 hrs by MTT assay; assay type: functional, cell-based; conditions: MDA-MB-231, 48 h
Breast carcinoma cell = assay: Cytotoxicity against human breast cancer cell line assessed as reduction in cell viability by MTT assay relative to control; assay type: functional
[14] = Cytotoxicity against human Colon carcinoma cells assessed as reduction in cell viability by MTT assay relative to control; assay type: functional
[15] = tested on: Non-small cell lung cancer cell line; assay: Cytotoxicity against human non-small cell lung cancer cell line assessed as reduction in cell viability by MTT assay relative to control; assay type: functional
[16] = tested on: Serine/threonine-protein kinase B-raf (Homo sapiens), P15056 [V600E]; assay: Inhibition of human BRAF V600E mutant using MEK1 as substrate in presence of ATP relative to control; conditions: concentration not given here
Sequence of Serine/threonine-protein kinase B-raf (Homo sapiens), P15056 [V600E] (P15056 whole entry V600E): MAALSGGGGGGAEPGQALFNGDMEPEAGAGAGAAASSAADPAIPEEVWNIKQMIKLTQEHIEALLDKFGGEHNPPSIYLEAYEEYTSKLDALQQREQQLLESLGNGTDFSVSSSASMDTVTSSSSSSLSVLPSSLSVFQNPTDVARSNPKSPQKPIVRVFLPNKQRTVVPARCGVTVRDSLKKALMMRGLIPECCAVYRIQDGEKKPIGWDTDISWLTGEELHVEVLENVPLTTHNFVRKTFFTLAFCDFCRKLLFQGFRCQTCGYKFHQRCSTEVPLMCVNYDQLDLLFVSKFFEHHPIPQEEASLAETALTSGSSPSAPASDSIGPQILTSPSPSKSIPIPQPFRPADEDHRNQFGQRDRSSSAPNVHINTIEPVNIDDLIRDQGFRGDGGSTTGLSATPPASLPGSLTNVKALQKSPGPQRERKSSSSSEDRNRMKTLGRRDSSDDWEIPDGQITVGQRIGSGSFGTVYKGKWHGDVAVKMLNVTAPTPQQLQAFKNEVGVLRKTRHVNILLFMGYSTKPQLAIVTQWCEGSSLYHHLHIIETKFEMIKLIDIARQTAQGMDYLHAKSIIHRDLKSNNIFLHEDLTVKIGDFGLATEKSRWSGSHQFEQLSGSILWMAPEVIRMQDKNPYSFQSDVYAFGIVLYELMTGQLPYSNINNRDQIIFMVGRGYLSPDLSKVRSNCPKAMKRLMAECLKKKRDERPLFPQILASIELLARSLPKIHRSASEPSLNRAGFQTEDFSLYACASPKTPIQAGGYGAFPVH

Melanoma tumor cell line = assay: Cytotoxicity against human melanoma tumor cell line assessed as reduction in cell viability by MTT assay relative to control; assay type: functional
Prostatic carcinoma cell = assay: Cytotoxicity against human prostatic carcinoma cell assessed as reduction in cell viability by MTT assay relative to control; assay type: functional
CNS carcinoma cell = assay: Cytotoxicity against human CNS carcinoma cells assessed as reduction in cell viability by MTT assay relative to control; assay type: functional
Ovarian cancer cell line = assay: Cytotoxicity against human ovarian cancer cell line assessed as reduction in cell viability by MTT assay relative to control; assay type: functional
[17] = target: Serine/threonine-protein kinase B-raf (Homo sapiens, UniProt P15056, V600E); assay: Inhibition of human BRAF V600E mutant using MEK1 as substrate in presence of ATP
Sequence of Serine/threonine-protein kinase B-raf (P15056 2-766 V600E limits assumed): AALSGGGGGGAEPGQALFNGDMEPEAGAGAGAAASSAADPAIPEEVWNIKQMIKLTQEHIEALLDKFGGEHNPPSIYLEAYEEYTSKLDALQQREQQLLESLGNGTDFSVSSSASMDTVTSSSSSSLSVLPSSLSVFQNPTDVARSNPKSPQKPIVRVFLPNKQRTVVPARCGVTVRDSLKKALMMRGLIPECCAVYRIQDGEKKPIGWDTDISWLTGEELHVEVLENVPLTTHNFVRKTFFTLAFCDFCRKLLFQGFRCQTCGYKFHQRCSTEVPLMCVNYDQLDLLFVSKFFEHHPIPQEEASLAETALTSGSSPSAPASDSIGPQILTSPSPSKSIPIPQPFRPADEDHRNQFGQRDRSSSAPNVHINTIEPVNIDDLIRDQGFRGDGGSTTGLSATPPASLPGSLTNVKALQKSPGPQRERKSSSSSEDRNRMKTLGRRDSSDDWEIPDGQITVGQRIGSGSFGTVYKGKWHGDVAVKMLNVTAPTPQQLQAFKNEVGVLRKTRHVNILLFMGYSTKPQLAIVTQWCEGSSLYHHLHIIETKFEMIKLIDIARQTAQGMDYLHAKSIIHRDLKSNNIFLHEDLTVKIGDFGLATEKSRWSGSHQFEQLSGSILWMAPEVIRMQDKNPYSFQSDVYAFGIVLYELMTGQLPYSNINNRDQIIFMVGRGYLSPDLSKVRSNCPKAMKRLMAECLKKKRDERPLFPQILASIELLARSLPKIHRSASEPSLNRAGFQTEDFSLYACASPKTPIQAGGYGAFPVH

Leukemic tumor cell line = assay: Cytotoxicity against human leukemic tumor cell line assessed as reduction in cell viability by MTT assay relative to control; assay type: functional
Renal cancer cell line = assay: Cytotoxicity against human renal cancer cell line assessed as reduction in cell viability by MTT assay relative to control; assay type: functional
[18] = target: Serine/threonine-protein kinase B-raf (Homo sapiens) (UniProt P15056); assay: Inhibition of wildtype BRAF (unknown origin) using MEK1 as substrate in presence of ATP relative to control; conditions: concentration not given here
Sequence of Serine/threonine-protein kinase B-raf (Homo sapiens) (P15056 whole entry): as the sequence (P15056 whole entry V600E) above, with E600V counted along it

[19] = Cytotoxicity against human L132 cells by MTT assay; assay type: toxicity, cell-based
MIA PaCa-2 = assay: Antiproliferative activity against human MIAPaCa-2 cells measured after 24 to 48 hrs by SRB staining based assay; assay type: functional, cell-based
A549 [20] = assay: Anticancer activity against human A549 cells incubated for 24 hrs by MTT assay; assay type: functional, cell-based; conditions: A549, 24 h
A549 [21] = assay: Induction of apoptosis in human A549 cells assessed as increase in caspase-3 level at 1 uM measured after 48 hrs by ELISA method relative to control (RVB = 9.1 %); assay type: functional
Tubulin = assay: Inhibition of tubulin polymerization (unknown origin) by fluorescence based assay; assay type: protein-complex assay, Homo sapiens
A549 [22] = assay: Induction of apoptosis in human A549 cells assessed as increase in caspase-3 level at 0.5 uM measured after 48 hrs by ELISA method relative to control; assay type: functional

- pIC50 (MDA-MB-231 [13]): 5.74
SMILES: COc1cccc2c1C(=O)c1c(O)c3c(c(O)c1C2=O)C[C@@](O)(C(=O)CO)C[C@@H]3O[C@H]1C[C@H](N)[C@H](O)[C@H](C)O1 [DOXORUBICIN]

- inhibition [16]: 99.6%
- pIC50 [17]: 7.68
- inhibition [18]: 66.3%
SMILES: O=[N+]([O-])c1cccc(-c2nc3sccn3c2-c2ccnc(NCCCNS(=O)(=O)c3cccc(F)c3)n2)c1
- inhibition (INH) (Breast carcinoma cell): >80%
- inhibition (INH) [14]: >80%
- inhibition (INH) [15]: >80%
- inhibition (INH) (Melanoma tumor cell line): 100%
- inhibition (INH) (Prostatic carcinoma cell): >90%
- inhibition (INH) (CNS carcinoma cell): 70%
- pIC50 (A-375 [10]): 5.52
- inhibition (INH) (Ovarian cancer cell line): >80%
- inhibition (INH) (Leukemic tumor cell line): >90%
- inhibition (INH) (Renal cancer cell line): >70%
- pIC50 [19]: 4.10

- pIC50 (A549 [20]): 6.19
- pIC50 (Tubulin): 5.63
SMILES: COc1ccc(-c2sc3nc(-c4ccc(F)cc4)c(/C=C/C(=O)c4ccccn4)n3c2-c2ccc(OC)cc2)cc1
- Activity (A549 [21]): 69.07%
- Activity (A549 [22]): 64.14%

- pIC50 (MDA-MB-231 [13]): 5.92
SMILES: COc1ccc(C(=O)/C=C/c2cn3c(n2)sc2ccccc23)cc1

- pIC50 [17]: 7.46
SMILES: O=[N+]([O-])c1cccc(-c2nc3sccn3c2-c2ccnc(NCCCNS(=O)(=O)c3ccc(F)cc3)n2)c1
- inhibition (INH) (Breast carcinoma cell): >80%
- inhibition (INH) [14]: >80%
- inhibition (INH) [15]: >80%
- inhibition (INH) (Melanoma tumor cell line): 100%
- inhibition (INH) (Prostatic carcinoma cell): >90%
- inhibition (INH) (CNS carcinoma cell): 70%
- pIC50 (A-375 [10]): 5.10
- inhibition (INH) (Ovarian cancer cell line): >80%
- inhibition (INH) (Leukemic tumor cell line): >90%
- inhibition (INH) (Renal cancer cell line): >70%
- pIC50 [19]: 4.12

Further lines, the compound ahead of its results:

SMILES: COc1ccc(-c2nc3sccn3c2-c2nc3ccc(C(F)(F)F)cc3[nH]2)cc1
- inhibition (A549 [1]): 68.1%
- pIC50 (A549 [2]): 5.97
- Activity (A549 [3]): 43.62%
- Activity (A549 [4]): 56.3%
- Activity (A549 [5]): 15.1%
- pIC50 [6]: 5.77
- Activity (A549 [7]): 14.94%

SMILES: COc1cc(C(=O)N/N=C/c2c(-c3ccc(F)cc3)nc3sccn23)cc(OC)c1OC
- Activity (MDA-MB-231 [8]): 75.8%

SMILES: CNC(=O)c1cc(Oc2ccc(NC(=O)Nc3ccc(Cl)c(C(F)(F)F)c3)cc2)ccn1 [SORAFENIB]
- pIC50 (A-375 [9]): 5.71
- pIC50 (SK-MEL-28): 5.71
- GI50 (OVCAR-3): 2.95 µM
- pIC50 (UACC-62): 5.71
- pIC50 (MDA-MB-435): 5.71
- pIC50 (A-375 [10]): 4.99

SMILES: COc1ccc(C(=O)NCCNc2nccc(-c3c(-c4ccc(F)cc4)nc4sccn34)n2)cc1
- inhibition (INH) (HT-29): 85.38%
- pIC50 (DU-145 [11]): 5.98
- Ratio IC50 (DU-145 [12]): 3

SMILES: O=C(Cc1csc2nc3ccccc3n12)Nc1cccc2ccccc12
- pIC50 (HeLa): 5.60
- pIC50 (L02): < 4.00
- pIC50 (HepG2): < 4.00
- pIC50 (HUVEC): < 4.00

SMILES: C/C(=N\N=C1\S/C(=N\Nc2ccc(Br)cc2)C(=O)N1N)c1sc2nc(-c3ccc(C)cc3)cn2c1C
- pIC50 (HCT-116): 5.96

SMILES: COc1ccc2c(c1OCc1csc3nc(-c4cc(C)c(Br)s4)cn13)C(=O)OC2C1c2c(cc3c(c2OC)OCO3)CCN1C (stereo not given)
- pIC50 (MIA PaCa-2): 5.44
